Tests used:
HIV-1LAI = experiment: Antiviral assay in MT-2 human T-lymphoid cells exposed to HIV-1LAI; type: cell-based; conditions: MT-2 cells
HIV-1 protease = HIV-1 protease (Human immunodeficiency virus type 1 group M subtype B, UniProt P04585); experiment: HIV-1 protease inhibition assay; type: biochemical; conditions: compared to 5b with the enantiomeric P2 ligand
[1] = tested on: highly drug-resistant HIV-1 variants; experiment: Antiviral activity against the panel of highly drug-resistant HIV-1 variants; type: cell-based; conditions: for ability to block replication of highly PI-resistant HIV-1 variants (in words): panel of Table 3
HIV-1ATV-5 μM = type: cell-based; conditions: MT-4 cells
HIV-1DRV^RP30 = type: cell-based; conditions: HIV-1DRV^RP30, MT-4 cells

## CC(C)CN(C[C@@H](O)[C@H](Cc1cc(F)cc(F)c1)NC(=O)O[C@H]1C[C@H]2CO[C@H]3OC1C[C@@H]23)S(=O)(=O)c1ccc2nc(NC3CC3)sc2c1 [inhibitor 5d, (1S,3aR,5S,7aS)-Octahydro-1,6-epoxyisobenzofuran-5-yl((2S,3R)-4-((2-(Cyclopropylamino)-N-isobutylbenzo[d]-thiazole)-6-sulfonamido)-1-(3,5-difluorophenyl)-3-hydroxy-butan-2-yl)carbamate]
HIV-1LAI
  fold reduction of antiviral activity compared to inhibitor 4d: ~25 fold

## CC(C)CN(C[C@@H](O)[C@H](Cc1ccccc1)NC(=O)OC1C[C@@H]2CO[C@@H]3OC1C[C@H]23)S(=O)(=O)c1ccc2nc(NC3CC3)sc2c1 (stereo partly drawn) [inhibitor 4b, (1R,3aS,7aR)-Octahydro-1,6-epoxyisobenzofuran-5-yl((2S,3R)-4-((2-(Cyclopropylamino)-N-isobutylbenzo[d]-thiazole)-6-sulfonamido)-3-hydroxy-1-phenylbutan-2-yl)-carbamate]
HIV-1 protease
  fold better enzyme Ki than inhibitor 5b: ~10 fold

## CC(C)CN(C[C@@H](O)[C@H](Cc1ccccc1)NC(=O)O[C@H]1C[C@H]2CO[C@H]3OC1C[C@@H]23)S(=O)(=O)c1ccc2nc(NC(C)C)oc2c1 [inhibitor 5c, (1S,3aR,5S,7aS)-Octahydro-1,6-epoxyisobenzofuran-5-yl((2S,3R)-3-Hydroxy-4-((N-isobutyl-2-(isopropylamino)benzo-[d]oxazole)-6-sulfonamido)-1-phenylbutan-2-yl)carbamate]
[1]
  ability to block replication of highly PI-resistant HIV-1 variants (in words): failed to block replication
HIV-1LAI
  fold improvement of antiviral activity compared to inhibitor 4c: over 5 fold

## CC(C)CN(C[C@@H](O)[C@H](Cc1ccc(F)cc1)NC(=O)O[C@H]1C[C@H]2CO[C@H]3OC1C[C@@H]23)S(=O)(=O)c1ccc2nc(NC3CC3)sc2c1 [inhibitor 5f, (1S,3aR,5S,7aS)-Octahydro-1,6-epoxyisobenzofuran-5-yl((2S,3R)-4-((2-(Cyclopropylamino)-N-isobutylbenzo[d]-thiazole)-6-sulfonamido)-1-(4-fluorophenyl)-3-hydroxybutan-2-yl)carbamate]
HIV-1LAI
  fold improvement of antiviral activity compared to inhibitor 5b: over 4 fold

## COC(=O)N[C@H](C(=O)N[C@@H](Cc1ccccc1)[C@@H](O)CN(Cc1ccc(-c2ccccn2)cc1)NC(=O)[C@@H](NC(=O)OC)C(C)(C)C)C(C)(C)C [ATV, atazanavir]
[1]
  ability to block replication of highly PI-resistant HIV-1 variants (in words): unable to suppress the replication
HIV-1ATV-5 μM
  fold-change in IC50 compared to wild-type HIV-1NL4-3: > 250 fold
HIV-1DRV^RP30
  fold-change in IC50 compared to wild-type HIV-1NL4-3: > 250 fold

## CC(C)CN(C[C@@H](O)[C@H](Cc1ccc(F)cc1)NC(=O)OC1C[C@@H]2CO[C@@H]3OC1C[C@H]23)S(=O)(=O)c1ccc2nc(NC3CC3)sc2c1 (stereo partly drawn) [inhibitor 4f, (1R,3aS,7aR)-Octahydro-1,6-epoxyisobenzofuran-5-yl((2S,3R)-4-((2-(Cyclopropylamino)-N-isobutylbenzo[d]-thiazole)-6-sulfonamido)-1-(4-fluorophenyl)-3-hydroxybutan-2-yl)carbamate]
HIV-1LAI
  fold improvement of antiviral activity compared to inhibitor 4b: over 7 fold

## CC(C)CN(C[C@@H](O)[C@H](Cc1cc(F)cc(F)c1)NC(=O)OC1C[C@@H]2CO[C@@H]3OC1C[C@H]23)S(=O)(=O)c1ccc2nc(NC3CC3)sc2c1 (stereo partly drawn) [inhibitor 4d, (1R,3aS,7aR)-Octahydro-1,6-epoxyisobenzofuran-5-yl((2S,3R)-4-((2-(Cyclopropylamino)-N-isobutylbenzo[d]-thiazole)-6-sulfonamido)-1-(3,5-difluorophenyl)-3-hydroxybutan-2-yl)carbamate]
[1]; Human immunodeficiency virus 1, read-out: antiviral activity against highly drug-resistant HIV-1 variants
  IC50: 0.21 to 4.5 nM

Source: publication PMC7425579 (Journal of medicinal chemistry, 2020)
